Read-outs that look alike come from different tables or passages of the source.
How the values were obtained:
Human CD73 = molecular target: T1, Human CD73 (Homo sapiens, UniProt P21589); assay: CD73 Enzyme Assay (EnzChek PNP/MESG kinetic readout of AMP hydrolysis); type: biochemical
T1 construct: purchased R&D Systems; host or cells: CHO cells
T1 sequence (P21589 27-549): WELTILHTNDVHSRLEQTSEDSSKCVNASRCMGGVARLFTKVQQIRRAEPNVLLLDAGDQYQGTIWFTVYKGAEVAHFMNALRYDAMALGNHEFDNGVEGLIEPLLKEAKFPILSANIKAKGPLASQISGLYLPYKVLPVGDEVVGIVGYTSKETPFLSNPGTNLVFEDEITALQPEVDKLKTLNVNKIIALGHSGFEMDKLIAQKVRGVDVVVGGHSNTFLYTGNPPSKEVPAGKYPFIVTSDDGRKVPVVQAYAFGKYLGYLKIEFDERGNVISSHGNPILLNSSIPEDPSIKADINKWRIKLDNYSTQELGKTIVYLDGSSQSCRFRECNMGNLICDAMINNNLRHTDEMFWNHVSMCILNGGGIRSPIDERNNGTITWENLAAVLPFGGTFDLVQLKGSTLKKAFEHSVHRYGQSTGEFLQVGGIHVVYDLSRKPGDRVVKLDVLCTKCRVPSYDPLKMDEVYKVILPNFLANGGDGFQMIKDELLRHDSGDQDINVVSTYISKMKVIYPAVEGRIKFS
Outline: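 Compounds tested as 15-point, 3-fold dilution series (300 μM to 0.0002 μM) in DMSO. Kinetic absorbance at 360 nm read every minute for 10–20 min, initial velocity taken from the linear portion.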

[1] = molecular target: T2, CD73 on U138 human neuroglioma cells (Homo sapiens, UniProt P21589); assay: CD73 Cell-Based Assay (inorganic phosphate from AMP, malachite green); settings: AMP substrate, 2 hours at 37° C., read-out: CD73 Cell-Based assay IC50
T2 construct: U138 cells were obtained from ATCC and cultured in DMEM with 10% FBS; host or cells: U138 human neuroglioma cells
T2 sequence (P21589 27-549): T1 sequence (P21589 27-549)
Outline: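 U138 cells, seeded the day before at 2500 per well, were washed and given AMP substrate (200 μM in the added mixture, before dilution into the buffer) together with compound. After 2 h at 37 °C in 5% CO2, inorganic phosphate in the supernatant was measured with malachite green.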

[2] = 0.25 nM hCD73, 25 μM AMP, read-out: CD73 Enzyme Assay IC50

| Structure (SMILES) | IC50 (Human CD73; [2]) | IC50 [1] | IC50 (Human CD73) |
| --- | --- | --- | --- |
| C[C@@H](Nc1c(C#N)c(Cl)nc2c1ncn2[C@@H]1O[C@H](COP(=O)(O)CP(=O)(O)O)[C@@H](O)[C@H]1O)c1ccc(F)cc1 [Compound 214] | – | < 10 nM | < 10 nM |
| N#Cc1c(Cl)nc2c(ccn2[C@@H]2O[C@H](COP(=O)(O)CP(=O)(O)O)[C@@H](O)[C@H]2O)c1NC1CCC1 [Compound 36] | < 10 nM | < 10 nM | – |
| N#Cc1nc2c(ccn2[C@@H]2O[C@H](COCP(=O)(O)O)[C@@H](O)[C@H]2O)c(NC2CCCC2)c1Cl [Compound 101] | < 10 nM | < 10 nM | – |
| N#Cc1nc2c(ccn2[C@@H]2O[C@H](COCP(=O)(O)O)[C@@H](O)[C@H]2O)c(N2CCC(F)(F)C2)c1Cl [Compound 102] | < 10 nM | < 10 nM | – |
| N#Cc1nc2c(ccn2[C@@H]2O[C@H](COCP(=O)(O)O)[C@@H](O)[C@H]2O)c(NC2CCCC2)c1C#N [Compound 104] | < 10 nM | < 10 nM | – |
| N#Cc1c(Cl)nc2c(cnn2[C@@H]2O[C@H](COCP(=O)(O)O)[C@@H](O)[C@H]2O)c1N1CC[C@H](F)C1 [Compound 79] | < 10 nM | < 10 nM | – |
| N#Cc1c(Cl)nc2c(ccn2[C@@H]2O[C@H](COC(CO)P(=O)(O)O)[C@@H](O)[C@H]2O)c1N1CC2CCCC2C1 (stereo partly drawn) [Compound 51] | < 10 nM | < 10 nM | – |
| N#Cc1c(Cl)nc2c(cnn2[C@@H]2O[C@H](COCP(=O)(O)O)[C@@H](O)[C@H]2O)c1N1CCC(F)(F)C1 [Compound 62, ((((2R,3S,4R,5R)-5-(6-chloro-5-cyano-4-(3,3-difluoropyrrolidin-1-yl)-1H-pyrazolo[3,4-b]pyridin-1-yl)-3,4-dihydroxytetrahydrofuran-2-yl)methoxy)methyl)phosphonic acid] | < 10 nM | < 10 nM | – |
| N#Cc1nc2c(ccn2[C@@H]2O[C@H](CS(=O)(=O)CP(=O)(O)O)[C@@H](O)[C@H]2O)c(NC2CCCC2)c1Cl [Compound 210] | < 10 nM | < 10 nM | – |
| C[C@H](Nc1c(C#N)c(Cl)nc2c1ccn2[C@@H]1O[C@H](COP(=O)(O)CP(=O)(O)O)[C@@H](O)[C@H]1O)c1ccc(C#N)cc1 [Compound 223] | < 10 nM | < 10 nM | – |
| N#Cc1c(Cl)nc2c(ccn2[C@@H]2O[C@H](CS(=O)(=O)CP(=O)(O)O)[C@@H](O)[C@H]2O)c1NC1CC2CC2C1 (stereo partly drawn) [Compound 33] | < 10 nM | < 10 nM | – |
| N#Cc1c(Cl)nc2c(cnn2[C@@H]2O[C@H](CS(=O)(=O)CP(=O)(O)O)[C@@H](O)[C@H]2O)c1NC1CC2CC2C1 (stereo partly drawn) [Compound 128] | < 10 nM | < 10 nM | – |
| N#Cc1c(Cl)nc2c(cnn2[C@@H]2O[C@H](COCP(=O)(O)O)[C@@H](O)[C@H]2O)c1N1CC2CCCC2C1 (stereo partly drawn) [Compound 61] | < 10 nM | < 10 nM | – |
| C[C@H](Nc1c(C#N)c(Cl)nc2c1ncn2[C@@H]1O[C@H](COP(=O)(O)CP(=O)(O)O)[C@@H](O)[C@@H]1F)c1ccc(F)cc1 [Compound 245] | < 10 nM | < 10 nM | – |
| N#Cc1c(Cl)nc2c(ccn2[C@@H]2O[C@H](CS(=O)(=O)CP(=O)(O)O)[C@@H](O)[C@H]2O)c1NC1CC(F)(F)C1 [Compound 20] | < 10 nM | < 10 nM | – |
| N#Cc1c(Cl)nc2c(cnn2[C@@H]2O[C@H](CS(=O)(=O)CP(=O)(O)O)[C@@H](O)[C@H]2O)c1N[C@H]1C[C@@H](F)C1 [Compound 150] | < 10 nM | < 10 nM | – |
| N#Cc1c(Cl)nc2c(ccn2[C@@H]2O[C@H](COP(=O)(O)CP(=O)(O)O)[C@@H](O)[C@H]2O)c1NC1CCOC1 (stereo partly drawn) [Compound 224] | < 10 nM | < 10 nM | – |
| N#Cc1nc2c(ccn2[C@@H]2O[C@H](COCP(=O)(O)O)[C@@H](O)[C@H]2O)c(N2C[C@@H](F)[C@@H](F)C2)c1C#N [Compound 106] | < 10 nM | < 10 nM | – |
| C[C@H](Nc1c(C#N)c(Cl)nc2c1cnn2[C@@H]1O[C@H](COP(=O)(O)CP(=O)(O)O)[C@@H](O)[C@H]1O)c1ccc(F)cc1 [Compound 247] | < 10 nM | < 10 nM | – |
| N#Cc1nc2c(ccn2[C@@H]2O[C@H](CS(=O)(=O)CP(=O)(O)O)[C@@H](O)[C@@H]2F)c(NC2CC(F)(F)C2)c1C#N [Compound 174] | 10 to 100 nM | 10 to 100 nM | – |

Further lines, with some results ahead:

| IC50 (Human CD73; [2]) | IC50 [1] | Structure (SMILES) | IC50 (Human CD73) |
| --- | --- | --- | --- |
| < 10 nM | < 10 nM | N#Cc1nc2c(ccn2[C@@H]2O[C@H](CS(=O)(=O)CP(=O)(O)O)[C@@H](O)[C@H]2O)c(NC2CC(F)(F)C2)c1C#N [Compound 177] | – |
| < 10 nM | < 10 nM | Cc1nc2c(ccn2[C@@H]2O[C@H](COP(=O)(O)CP(=O)(O)O)[C@@H](O)[C@H]2O)c(NC2CCCC2)c1C#N [Compound 49] | – |
| < 10 nM | < 10 nM | N#Cc1c(Cl)nc2c(ccn2[C@@H]2O[C@H](COCP(=O)(O)O)[C@@H](O)[C@H]2O)c1N1CCC(F)(F)C1 [Compound 13, ((((2R,3S,4R,5R)-5-(6-chloro-5-cyano-4-(3,3-difluoropyrrolidin-1-yl)-1H-pyrrolo[2,3-b]pyridin-1-yl)-3,4-dihydroxytetrahydrofuran-2-yl)methoxy)methyl)phosphonic acid] | – |
| < 10 nM | < 10 nM | C[C@H](Nc1c(C#N)c(Cl)nc2c1ccn2[C@@H]1O[C@H](CS(=O)(=O)CP(=O)(O)O)[C@@H](O)[C@H]1O)c1cccc(C#N)c1 [Compound 190] | – |
| < 10 nM | < 10 nM | C[C@H](Nc1c(C#N)c(Cl)nc2c1ccn2[C@@H]1O[C@H](COP(=O)(O)CP(=O)(O)O)[C@@H](O)[C@H]1O)c1ccc(F)cn1 [Compound 212] | – |
| < 10 nM | < 10 nM | N#Cc1c(Cl)nc2c(ncn2[C@@H]2O[C@H](CS(=O)(=O)CP(=O)(O)O)[C@@H](O)[C@H]2O)c1N1CCC(F)(F)C1 [Compound 118] | – |
| < 10 nM | < 10 nM | N#Cc1c(Cl)nc2c(cnn2[C@@H]2O[C@H](COCP(=O)(O)O)[C@@H](O)[C@H]2O)c1NC1CC(F)(F)C1 [Compound 81] | – |
| < 10 nM | < 10 nM | N#Cc1cnc2c(ccn2[C@@H]2O[C@H](COP(=O)(O)CP(=O)(O)O)[C@@H](O)[C@H]2O)c1NC1CCCC1 [Compound 48] | – |
| < 10 nM | < 10 nM | C[C@@H](Nc1c(C#N)c(Cl)nc2c1ccn2[C@@H]1O[C@H](COP(=O)(O)CP(=O)(O)O)[C@@H](O)[C@@H]1F)c1ccc(F)cc1 [Compound 229] | – |
| < 10 nM | < 10 nM | N#Cc1c(Cl)nc2c(cnn2[C@@H]2O[C@H](CS(=O)(=O)CP(=O)(O)O)[C@@H](O)[C@H]2O)c1NC1CCC(F)(F)CC1 [Compound 130] | – |
| < 10 nM | < 10 nM | C[C@H](Nc1c(C#N)c(Cl)nc2c1cnn2[C@@H]1O[C@H](COP(=O)(O)CP(=O)(O)O)[C@@H](O)[C@H]1O)c1ccc(C#N)cc1 [Compound 243] | – |
| < 10 nM | < 10 nM | N#Cc1c(Cl)nc2c(ccn2[C@@H]2O[C@H](CS(=O)(=O)CP(=O)(O)O)[C@@H](O)[C@H]2O)c1N1CC2CC2C1 (stereo partly drawn) [Compound 22] | – |
| < 10 nM | < 10 nM | N#Cc1c(Cl)nc2c(c(F)cn2[C@@H]2O[C@H](COCP(=O)(O)O)[C@@H](O)[C@H]2O)c1NC1CC(F)(F)C1 [Compound 160] | – |
| < 10 nM | < 10 nM | N#Cc1c(Cl)nc2c(ccn2[C@@H]2O[C@H](CS(=O)(=O)CP(=O)(O)O)[C@@H](O)[C@H]2O)c1N[C@H]1CCC(F)(F)C1 [Compound 5] | – |
| < 10 nM | < 10 nM | N#Cc1nc2c(ccn2[C@@H]2O[C@H](CS(=O)(=O)CP(=O)(O)O)[C@@H](O)[C@H]2O)c(NC2CC(F)(F)C2)c1Cl [Compound 142] | – |
| < 10 nM | < 10 nM | C[C@H](Nc1c(C#N)c(Cl)nc2c1ccn2[C@@H]1O[C@H](COCP(=O)(O)O)[C@@H](O)[C@H]1O)c1ccc(F)cc1 [Compound 8] | – |
| < 10 nM | < 10 nM | C[C@H](Nc1c(C#N)c(Cl)nc2c1ncn2[C@@H]1O[C@H](COP(=O)(O)CP(=O)(O)O)[C@@H](O)[C@H]1O)c1ccccc1F [Compound 242] | – |
| < 10 nM | < 10 nM | C[C@@H](Nc1c(C#N)c(Cl)nc2c1ccn2[C@@H]1O[C@H](COP(=O)(O)CP(=O)(O)O)[C@@H](O)[C@H]1O)c1ccc(F)cc1 [Compound 34] | – |
| < 10 nM | < 10 nM | N#Cc1c(Cl)nc2c(ccn2[C@@H]2O[C@H](COCP(=O)(O)O)[C@@H](O)[C@H]2O)c1N1C[C@@H](F)[C@H](F)C1 [Compound 68] | – |
